Data from ChEMBL document CHEMBL2074124, “A transfected cell model for the renal toxin transporter, rOCT2” (Toxicol Sci, 1999).

T1: Solute carrier family 22 member 2 (Rattus norvegicus, UniProt Q9R0W2)
T1 sequence (Q9R0W2 whole entry): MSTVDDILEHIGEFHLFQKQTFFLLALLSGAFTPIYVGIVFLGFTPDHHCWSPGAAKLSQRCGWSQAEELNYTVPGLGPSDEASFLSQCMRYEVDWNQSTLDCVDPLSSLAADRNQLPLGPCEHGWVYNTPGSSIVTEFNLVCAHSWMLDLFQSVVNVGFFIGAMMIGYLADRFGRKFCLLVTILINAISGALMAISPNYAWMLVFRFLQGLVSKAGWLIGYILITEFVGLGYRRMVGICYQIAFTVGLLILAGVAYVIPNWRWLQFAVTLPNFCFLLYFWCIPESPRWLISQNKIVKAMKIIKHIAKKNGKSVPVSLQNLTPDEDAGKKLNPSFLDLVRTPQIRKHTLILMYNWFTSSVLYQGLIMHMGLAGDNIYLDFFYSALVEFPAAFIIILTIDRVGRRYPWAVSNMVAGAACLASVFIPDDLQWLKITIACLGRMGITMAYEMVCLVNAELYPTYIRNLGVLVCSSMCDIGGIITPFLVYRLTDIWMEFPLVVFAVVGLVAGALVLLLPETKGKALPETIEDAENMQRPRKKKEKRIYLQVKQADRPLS


Columns and labels:
[1] = target: T1, Solute carrier family 22 member 2; experiment: TP_TRANSPORTER: inhibition of TEA uptake (apical to cell) in OCT2-expressing NIH3T3 cells; format: functional, cell-based
[2] = target: T1, Solute carrier family 22 member 2; experiment: TP_TRANSPORTER: uptake (apical to cell) in OCT2-expressing NIH3T3 cells; format: functional, cell-based; conditions: mouse
[3] = substrate: CC[N+](CC)(CC)CC; experiment: cells, lysate or membranes named

| Molecule | Ki [1] [µM] | Activity [2] | further results |
| --- | --- | --- | --- |
| CN/C(=N/CCSCc1nc[nH]c1C)NC#N [CIMETIDINE] | 198 | – | – |
| CC[n+]1c(CC2C=C(C)N=C(c3ccccc3)N2C)ccc2ccccc21 (stereo not given) [Cyanine-863] | 0.861 | – | – |
| COc1cccc2c1C(=O)c1c(O)c3c(c(O)c1C2=O)C[C@@](O)(C(C)=O)C[C@@H]3O[C@H]1C[C@H](N)[C@H](O)[C@H](C)O1 [DAUNORUBICIN] | – | substrate [+] | – |
| CC[C@]1(O)C[C@@H]2CN(CCc3c([nH]c4ccccc34)[C@@](C(=O)OC)(c3cc4c(cc3OC)N(C)[C@H]3[C@@](O)(C(=O)OC)[C@H](OC(C)=O)[C@]5(CC)C=CCN6CC[C@]43[C@@H]65)C2)C1 [VINBLASTINE] | – | substrate [+] | – |
| Solute carrier family 22 member 2 (Rattus norvegicus) (protein) MSTVDDILEHIGEFHLFQKQTFFLLALLSGAFTPIYVGIVFLGFTPDHHCWSPGAAKLSQRCGWSQAEELNYTVPGLGPSDEASFLSQCMRYEVDWNQSTLDCVDPLSSLAADRNQLPLGPCEHGWVYNTPGSSIVTEFNLVCAHSWMLDLFQSVVNVGFFIGAMMIGYLADRFGRKFCLLVTILINAISGALMAISPNYAWMLVFRFLQGLVSKAGWLIGYILITEFVGLGYRRMVGICYQIAFTVGLLILAGVAYVIPNWRWLQFAVTLPNFCFLLYFWCIPESPRWLISQNKIVKAMKIIKHIAKKNGKSVPVSLQNLTPDEDAGKKLNPSFLDLVRTPQIRKHTLILMYNWFTSSVLYQGLIMHMGLAGDNIYLDFFYSALVEFPAAFIIILTIDRVGRRYPWAVSNMVAGAACLASVFIPDDLQWLKITIACLGRMGITMAYEMVCLVNAELYPTYIRNLGVLVCSSMCDIGGIITPFLVYRLTDIWMEFPLVVFAVVGLVAGALVLLLPETKGKALPETIEDAENMQRPRKKKEKRIYLQVKQADRPLS | – | – | Km [3]: 141 µM |
